Results as given in publication PMC6005341, “Identification of “sarsasapogenin-aglyconed” timosaponins as novel Aβ-lowering modulators of amyloid precursor protein processing” (Chemical Science, 2016).

How the values were obtained:
[1] = test system: Aβ40 and Aβ38 in N2A-APPswe cells; assay: Aβ40 and Aβ38 in conditioned medium of N2A-APPswe cells by ELISA; assay type: cell-based; conditions: compared with Aβ42
Experimental: Aβ ELISA: Aβ concentrations in conditioned medium were assayed using ELISA kits for […]

[2] = test system: Aβ42 levels in rat primary cortical neuron culture; assay: Aβ42 in conditioned medium of rat primary cortical neuron culture, 5-day incubation; assay type: cell-based; conditions: n = 3
Description: (§1) Reagents: All reagents were of analytical grade (purity > 98%) and were purchased from Sigma-Aldrich Chemical Co. unless otherwise specified. SSG (1) was purchased from Wako Pure Chemical Industries, Ltd. Diosgenin (6), Dioscin (9), Polyphyllin D (10), Timosaponin BI (22) and Timosaponin BII (23) were purchased from Chengdu Must Bio-Technology Co.
(§2) Ltd. Yamogenin (7) was bought from Ambinter c/o Greenpharma while Smilagenin (24) was bought from Steraloids Inc. Substances dissolved in DMSO as stock solutions. Cell culture medium constituents were purchased from Life Technologies, Inc.
(§3) Cell culture: Neuro-2A cells expressing Swedish mutants of APP (N2A-APPswe provided by Prof. Yifan Han, The Hong Kong Polytechnic University)1 was cultured in minimal essential medium with 2 mM glutamine, 2 mM pyruvate and 10% fetal bovine serum. Cells were seeded at 6-well plate at 1×106 cells/mL and grown for two days until confluence. The medium was replaced and the testing compounds were added at indicated concentrations for […]
Primary cortical neurons were prepared from embryonic day 17 Sprague-Dawley rats (Laboratory Animal Unit, The University of Hong Kong). Cerebral cortices were mechanically dissociated in complete medium (MEM with 18 mM glucose; 2 mM L-glutamine; 5% FBS; hormone cocktail, penicillin (50 U/mL), streptomycin (50 μg/mL), and […]). Cells were seeded onto six-well plate (0.5 × 10^6 cells/well) pre-coated with poly-L-lysine. […]
rabbit antibody (Millipore). The immunoreactivities were detected using enhanced chemiluminescence reagents (GE Health care). […]
Aβ ELISA: Aβ concentrations in conditioned medium were assayed using ELISA kits for human Aβ40, human Aβ42 (ultrasensitive) (Invitrogen), human Aβ38 (MyBioSource) (in N2A-APPswe cells) or Wako High Sensitive Aβx-42 ELISA kit (in Rat primary cortical neuron culture). The viability of the N2A-APPswe and Primary cortical neurons were determined by MTT and LDH release assays, respectively. […]

[3] = test system: APP processing in N2A-APPswe cells; assay: Immunoblot of APP processing in N2A-APPswe cells; assay type: cell-based
Description: as §1, §2
as §3, with “confluence.” for “confluence. The medium was replaced and the testing compounds were added at indicated concentrations for”
Immunoblot analysis: Cells were washed with phosphate buffered saline and lysed with buffer containing 50 mM Tris-Cl, pH 7.4, 150 mM NaCl, 1% Triton X-100 supplemented with protease inhibitors. Equal amount of proteins (30 µg) was resolved by 16.5% Tris-tricine gels and then transferred to nitrocellulose membrane with 0.2 µm pore size. For detection of secreted Aβ, sAPPα and  sAPPβ, cells were treated with the timosaponins for 8 h in complete medium which were then replaced with medium containing 0.1% FBS. After further incubation of 16 h, 50 µL of the conditioned medium was mixed with SDS sample buffer and resolved accordingly. The membrane was blocked with Tris-buffered saline containing 0.1% Tween 20 and 3% BSA and then incubated with primary antibodies at 4 °C overnight, followed with appropriate secondary antibodies for 2 h. The primary antibodies were: APP c-terminal rabbit antibody (1:5000; Merck Bioscience) for detection of full length APP and APP-CTFs, mouse monoclonal 6E10 (Covance) for secreted Aβ and sAPPα,  mouse monoclonal 6A1 (IBL) for sAPPβswe, ADAM-10 rabbit antibody (Millipore) and BACE1

[4] = test system: animal models of dementia; design: method as in PMID 19426756, PMID 16226729, PMID 17566650; conditions: oral administration; cited from earlier work
β-secretase = biological target: T1, β-secretase (Mus musculus, UniProt P56818); assay: β-Secretase assay in N2A-APPswe cell protein extracts; assay type: biochemical
T1 construct: endogenous in cells; host or cells: N2A-APPswe (Neuro-2A stably expressing APP Swedish mutant)
Experimental: β-Secretase assays: Confluent N2A-APPswe cells were harvested and homogenized with 50
mM MES, pH5.5. Protein extracts (10 µg) were incubated with testing compounds or vehicle
for 1 h at room temperature. […]

T1 sequence (P56818 46-501): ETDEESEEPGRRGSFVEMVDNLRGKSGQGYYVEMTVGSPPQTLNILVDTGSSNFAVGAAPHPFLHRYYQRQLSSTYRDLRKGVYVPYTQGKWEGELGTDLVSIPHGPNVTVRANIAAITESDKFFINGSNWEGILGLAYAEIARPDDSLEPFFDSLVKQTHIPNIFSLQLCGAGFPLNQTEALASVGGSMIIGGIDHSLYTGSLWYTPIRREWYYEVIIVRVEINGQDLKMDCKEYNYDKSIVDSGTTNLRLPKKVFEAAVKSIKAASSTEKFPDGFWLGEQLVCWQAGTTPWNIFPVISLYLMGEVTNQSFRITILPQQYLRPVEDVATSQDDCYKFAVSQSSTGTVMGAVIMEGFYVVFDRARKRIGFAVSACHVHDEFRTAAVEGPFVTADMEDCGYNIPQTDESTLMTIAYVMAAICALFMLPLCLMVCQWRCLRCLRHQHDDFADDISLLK

Compound	effect on Aβ40 and Aβ38 [1]	Aβ42 reduction (%) ([2]; 10 μM)	expression of ADAM-10 [3]	expression of the β-secretase BACE1 [3]	α-secretase-cleaved CTF (C-83) and secreted APPα ([3]; 10 μM)	expression of full length APP ([3]; 18 h)	levels of β-secretase-cleaved CTF (C-99) and secreted APPβ ([3]; concentration-dependent)	memory dysfunction [4]	Aβ42 reduction (%) ([2]; 5 μM)	β-secretase activities in the cell extracts (β-secretase)	sAPPα levels ([3]; 100 μM)	α-CTF and β-CTF expression ([3]; 100 μM)
C[C@H]1CC[C@@]2(OC1)O[C@H]1C[C@H]3[C@@H]4CC[C@@H]5C[C@@H](O[C@@H]6O[C@H](CO)[C@H](O)[C@H](O)[C@H]6O)CC[C@]5(C)[C@H]4CC[C@]3(C)[C@H]1[C@@H]2C [TAI (3), timosaponin A I]	much smaller effect	28 ± 5	–	–	–	–	–	–	–	–	–	–
C[C@H]1CC[C@@]2(OC1)O[C@H]1C[C@H]3[C@@H]4CC[C@@H]5C[C@@H](O[C@@H]6O[C@H](CO)[C@H](O)[C@H](O)[C@H]6O[C@@H]6O[C@H](CO)[C@@H](O)[C@H](O)[C@H]6O)CC[C@]5(C)[C@H]4CC[C@]3(C)[C@H]1[C@@H]2C [TAIII (2), timosaponin A III]	much smaller effect	–	did not alter	did not affect	increased	did not elicit a change	decreased	improve	42 ± 9	did not affect	–	–
C[C@H]1CC[C@@]2(OC1)O[C@H]1C[C@H]3[C@@H]4CC[C@@H]5C[C@@H](O)CC[C@]5(C)[C@H]4CC[C@]3(C)[C@H]1[C@@H]2C [SSG (1), sarsasapogenin]	–	–	–	–	–	–	–	improve	25 ± 4	no change	marked increase	increased
